US6906205B2, “Spiro and dispiro 1,2,4-trioxolane antimalarials” (Medicines for Malaria Venture MMV, priority 2002, dated 2005)
In brackets after ≈: the same amount, converted by molar mass.

tested on: Schistosoma mansoni adult schistosomes (49-day-old); experiment: effect on adult schistosomes (49-day-old) in mice; format: in vivo; conditions: 200 mg/kg per os, infected mice
Description: Mice were infected with 100 Schistosoma mansoni cercariae […]. Each group was treated per os with OZ compounds at single doses of 200, 400, and 600 mg/kg. […] All groups were killed 4 weeks after treatment and the liver and intestine were removed and separated. The liver and intestine were compressed and alive male and female worms could be seen and counted.

Row | Structure (SMILES) | Tox (mice)
1 | O=C(C[C@H]1CC[C@]2(CC1)OOC1(O2)C2CC3CC(C2)CC1C3)N1CCOCC1 (stereo partly shown) [OZ189] | *Tox: 2/3

same assay, conditions: 400 mg/kg per os, infected mice

Row | Structure (SMILES) | Tox (mice)
2 | O=C(C[C@H]1CC[C@]2(CC1)OOC1(O2)C2CC3CC(C2)CC1C3)N1CCOCC1 (stereo partly shown) [OZ189] | Tox: 3/3 ^

same assay, conditions: single 200 mg/kg per os

Row | Structure (SMILES) | % reduction of adult worms growth at day 49 after per os application of 200 mg/kg, TWR (%) | adult worms at day 49, per os 200 mg/kg, DEAD WORM (%)
3 | O=C(C[C@H]1CC[C@]2(CC1)OOC1(O2)C2CC3CC(C2)CC1C3)N1CCOCC1 (stereo partly shown) [OZ189] | 0 | 17

same assay, conditions: single 400 mg/kg per os

Row | Structure (SMILES) | % reduction of adult worms growth at day 49 after per os application of 400 mg/kg, TWR (%) | adult worms at day 49, per os 400 mg/kg, DEAD WORM (%)
4 | O=C(OC[C@H]1CC[C@]2(CC1)OOC1(O2)C2CC3CC(C2)CC1C3)N1CCN(c2ccccc2)CC1 (stereo partly shown) [OZ148] | 25 | 0
5 | CC(=O)N1CCC2(CC1)OOC1(O2)C2CC3CC(C2)CC1C3 (stereo not shown) [OZ49] | 17 | 10
6 | NC(=O)OC1CCC2(CC1)OOC1(O2)C2CC3CC(C2)CC1C3 (stereo not shown) [OZ107] | 26 | 4

tested on: P. falciparum K1 strain (Thailand resistant to chloroquine); experiment: semiautomated microdilution assay, [3H]-hypoxanthine incorporation, K1 strain; format: cell-based, Plasmodium falciparum; conditions: K1 strain, 72 h incubation
Method in brief: (§1)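 Intraerythrocytic stages from unsynchronised stock cultures are exposed to test compounds in a semiautomated microdilution format, and fifty percent inhibitory concentrations are then fitted by logit regression.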

Row | Structure (SMILES) | IC50 (ng/ml) K1 [ng/mL]
7 | O=C(OC[C@H]1CC[C@]2(CC1)OOC1(O2)C2CC3CC(C2)CC1C3)N1CCN(c2ccccc2)CC1 (stereo partly shown) [OZ148] | 17 (≈ 35.2 nM)
8 | CC(=O)N1CCC2(CC1)OOC1(O2)C2CC3CC(C2)CC1C3 (stereo not shown) [OZ49] | 0.82 (≈ 2.67 nM)
9 | NC(=O)OC1CCC2(CC1)OOC1(O2)C2CC3CC(C2)CC1C3 (stereo not shown) [OZ107] | 1.0 (≈ 3.09 nM)
10 | O=C(C[C@H]1CC[C@]2(CC1)OOC1(O2)C2CC3CC(C2)CC1C3)N1CCOCC1 (stereo partly shown) [OZ189] | 1.7 (≈ 4.34 nM)

tested on: ANKA strain of P. berghei; experiment: single dose STI in vivo screen in infected mice; set-up: species or system Plasmodium berghei; conditions: percent reduction in parasitemia day 3 post-infection; single 10 mg/kg po in 3% ethanol and 7% Tween 80; mice
Method in brief: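 Groups of 3-5 Moro SPF or NMRI mice infected with the ANKA strain of P. berghei received a single dose of trioxolane on day one post-infection. The compound was given in 3% ethanol and 7% Tween 80 or in SSV (0.5% w/v CMC, 0.5% v/v benzyl alcohol, 0.4% v/v Tween 80, 0.9% w/v sodium chloride in water). Antimalarial activity was scored as percent reduction in parasitemia on day three and as survival time versus untreated controls. Survival to day 30 counted as cure.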

Row | Structure (SMILES) | Activity (%) po [%]
11 | O=C(OC[C@H]1CC[C@]2(CC1)OOC1(O2)C2CC3CC(C2)CC1C3)N1CCN(c2ccccc2)CC1 (stereo partly shown) [OZ148] | 38
12 | CC(=O)N1CCC2(CC1)OOC1(O2)C2CC3CC(C2)CC1C3 (stereo not shown) [OZ49] | 81
13 | NC(=O)OC1CCC2(CC1)OOC1(O2)C2CC3CC(C2)CC1C3 (stereo not shown) [OZ107] | 70
14 | O=C(C[C@H]1CC[C@]2(CC1)OOC1(O2)C2CC3CC(C2)CC1C3)N1CCOCC1 (stereo partly shown) [OZ189] | 95

same assay, conditions: percent reduction in parasitemia day 3 post-infection; single 10 mg/kg sc in 3% ethanol and 7% Tween 80; mice

Row | Structure (SMILES) | Activity (%) sc [%]
15 | O=C(OC[C@H]1CC[C@]2(CC1)OOC1(O2)C2CC3CC(C2)CC1C3)N1CCN(c2ccccc2)CC1 (stereo partly shown) [OZ148] | 21
16 | CC(=O)N1CCC2(CC1)OOC1(O2)C2CC3CC(C2)CC1C3 (stereo not shown) [OZ49] | 85
17 | NC(=O)OC1CCC2(CC1)OOC1(O2)C2CC3CC(C2)CC1C3 (stereo not shown) [OZ107] | 99.74
18 | O=C(C[C@H]1CC[C@]2(CC1)OOC1(O2)C2CC3CC(C2)CC1C3)N1CCOCC1 (stereo partly shown) [OZ189] | 98

same assay, conditions: percent reduction in parasitemia day 3 post-infection; single po dose in standard suspending vehicle (SSV); mice

Row | Structure (SMILES) | Activity (%) SSVpo [%]
19 | O=C(OC[C@H]1CC[C@]2(CC1)OOC1(O2)C2CC3CC(C2)CC1C3)N1CCN(c2ccccc2)CC1 (stereo partly shown) [OZ148] | 58
20 | NC(=O)OC1CCC2(CC1)OOC1(O2)C2CC3CC(C2)CC1C3 (stereo not shown) [OZ107] | 32
21 | O=C(C[C@H]1CC[C@]2(CC1)OOC1(O2)C2CC3CC(C2)CC1C3)N1CCOCC1 (stereo partly shown) [OZ189] | 99.79

same assay, conditions: single 10 mg/kg po in 3% ethanol and 7% Tween 80; untreated control 5.6 ± 0.3

Row | Structure (SMILES) | Survival (days) po [days]
22 | O=C(OC[C@H]1CC[C@]2(CC1)OOC1(O2)C2CC3CC(C2)CC1C3)N1CCN(c2ccccc2)CC1 (stereo partly shown) [OZ148] | 7.3
23 | CC(=O)N1CCC2(CC1)OOC1(O2)C2CC3CC(C2)CC1C3 (stereo not shown) [OZ49] | 6.7
24 | NC(=O)OC1CCC2(CC1)OOC1(O2)C2CC3CC(C2)CC1C3 (stereo not shown) [OZ107] | 6.3
25 | O=C(C[C@H]1CC[C@]2(CC1)OOC1(O2)C2CC3CC(C2)CC1C3)N1CCOCC1 (stereo partly shown) [OZ189] | 9.3

same assay, conditions: single 10 mg/kg sc in 3% ethanol and 7% Tween 80; untreated control 5.6 ± 0.3

Row | Structure (SMILES) | Survival (days) sc [days]
26 | O=C(OC[C@H]1CC[C@]2(CC1)OOC1(O2)C2CC3CC(C2)CC1C3)N1CCN(c2ccccc2)CC1 (stereo partly shown) [OZ148] | 6.3
27 | CC(=O)N1CCC2(CC1)OOC1(O2)C2CC3CC(C2)CC1C3 (stereo not shown) [OZ49] | 7.3
28 | NC(=O)OC1CCC2(CC1)OOC1(O2)C2CC3CC(C2)CC1C3 (stereo not shown) [OZ107] | 8.0
29 | O=C(C[C@H]1CC[C@]2(CC1)OOC1(O2)C2CC3CC(C2)CC1C3)N1CCOCC1 (stereo partly shown) [OZ189] | 10.7

same assay, conditions: single po dose in SSV; untreated control 5.6 ± 0.3

Row | Structure (SMILES) | Survival (days) SSVpo [days]
30 | O=C(OC[C@H]1CC[C@]2(CC1)OOC1(O2)C2CC3CC(C2)CC1C3)N1CCN(c2ccccc2)CC1 (stereo partly shown) [OZ148] | 7.7
31 | NC(=O)OC1CCC2(CC1)OOC1(O2)C2CC3CC(C2)CC1C3 (stereo not shown) [OZ107] | 6.3
32 | O=C(C[C@H]1CC[C@]2(CC1)OOC1(O2)C2CC3CC(C2)CC1C3)N1CCOCC1 (stereo partly shown) [OZ189] | 9.0

tested on: P. falciparum NF54 strain (sensitive to standard antimalarials); experiment: semiautomated microdilution assay, [3H]-hypoxanthine incorporation, NF54 strain; format: cell-based, Plasmodium falciparum; conditions: NF54 strain, 72 h incubation
Method in brief: as §1

Row | Structure (SMILES) | IC50 (ng/ml) NF54 [ng/mL]
33 | O=C(OC[C@H]1CC[C@]2(CC1)OOC1(O2)C2CC3CC(C2)CC1C3)N1CCN(c2ccccc2)CC1 (stereo partly shown) [OZ148] | 16 (≈ 33.2 nM)
34 | CC(=O)N1CCC2(CC1)OOC1(O2)C2CC3CC(C2)CC1C3 (stereo not shown) [OZ49] | 0.93 (≈ 3.03 nM)
35 | NC(=O)OC1CCC2(CC1)OOC1(O2)C2CC3CC(C2)CC1C3 (stereo not shown) [OZ107] | 0.30 (≈ 0.928 nM)
36 | O=C(C[C@H]1CC[C@]2(CC1)OOC1(O2)C2CC3CC(C2)CC1C3)N1CCOCC1 (stereo partly shown) [OZ189] | 3.0 (≈ 7.66 nM)
